In patent publication US5773239A, “Mannosidase inhibitors, process for their preparation and their use as therapeutic agents” (Mount Sinai Hospital Corporation., priority 1995, dated 1998):

How the values were obtained:
[1] = target: T1, rat liver Golgi α-mannosidase II (Rattus norvegicus, UniProt P28494); test: Rat liver Golgi α-mannosidase II assay; type: biochemical; conditions: for IC50: para-nitrophenyl α-mannose, pH 5.6, read-out: IC50 ManII; for Ratio: ratio of lyso to ManII IC50 values
T1 construct: The assay for rat liver Golgi α-mannosidase II; from tissue; host or cells: rat liver (Golgi)
T1 sequence (P28494 1-1148): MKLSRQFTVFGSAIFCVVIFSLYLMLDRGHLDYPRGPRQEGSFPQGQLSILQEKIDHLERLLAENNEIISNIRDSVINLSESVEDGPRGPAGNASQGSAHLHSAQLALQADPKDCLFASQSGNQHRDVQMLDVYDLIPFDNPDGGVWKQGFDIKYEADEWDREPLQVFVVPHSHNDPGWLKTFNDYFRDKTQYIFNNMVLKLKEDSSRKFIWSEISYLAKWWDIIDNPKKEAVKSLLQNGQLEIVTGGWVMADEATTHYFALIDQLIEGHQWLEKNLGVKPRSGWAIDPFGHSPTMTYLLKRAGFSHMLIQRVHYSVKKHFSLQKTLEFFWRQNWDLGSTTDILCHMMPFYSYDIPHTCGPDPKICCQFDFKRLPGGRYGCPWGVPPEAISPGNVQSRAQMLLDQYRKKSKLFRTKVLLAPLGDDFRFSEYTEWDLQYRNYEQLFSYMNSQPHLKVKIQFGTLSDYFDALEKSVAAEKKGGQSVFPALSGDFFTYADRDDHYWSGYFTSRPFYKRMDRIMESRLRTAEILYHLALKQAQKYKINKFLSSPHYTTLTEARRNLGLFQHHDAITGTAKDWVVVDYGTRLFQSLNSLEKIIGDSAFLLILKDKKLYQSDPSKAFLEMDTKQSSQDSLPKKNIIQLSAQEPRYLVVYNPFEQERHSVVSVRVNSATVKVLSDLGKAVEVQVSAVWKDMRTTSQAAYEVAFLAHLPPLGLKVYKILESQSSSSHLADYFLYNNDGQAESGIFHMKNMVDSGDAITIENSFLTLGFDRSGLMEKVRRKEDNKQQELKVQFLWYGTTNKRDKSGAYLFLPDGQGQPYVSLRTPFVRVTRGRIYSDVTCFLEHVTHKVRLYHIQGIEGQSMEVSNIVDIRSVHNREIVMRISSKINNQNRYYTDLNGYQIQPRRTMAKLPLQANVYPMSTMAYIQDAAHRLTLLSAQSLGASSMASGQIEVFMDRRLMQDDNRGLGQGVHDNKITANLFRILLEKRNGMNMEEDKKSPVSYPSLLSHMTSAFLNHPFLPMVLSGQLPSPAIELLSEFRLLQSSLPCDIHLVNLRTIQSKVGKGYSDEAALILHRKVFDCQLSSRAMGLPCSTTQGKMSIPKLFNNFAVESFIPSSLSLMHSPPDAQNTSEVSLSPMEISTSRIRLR
Description: The assay for rat liver Golgi α-mannosidase II contained 5 mM para-nitrophenylα-mannose, 40 mM sodium acetate pH 5.6, plus serially diluted test compouunds and mannosidase enzyme in a total volume of 50 ul, in 96 well plates. Plates were incubated 45 min at 37° C., then the reaction was stopped with 50 μl of 0.5M sodium carbonate. […] The lysosomal mannosidase was done in the same procedure but with 40 mM sodium acetate buffer pH 5.0. The numbers in the table are IC50 values in μM for inhibition of mannosidase activity.

lysosomal mannosidase = test: Lysosomal mannosidase assay (pH 5.0); type: biochemical; conditions: para-nitrophenyl α-mannose
Description: The assay for rat liver Golgi α-mannosidase II contained 5 mM para-nitrophenylα-mannose, 40 mM sodium acetate pH 5.6, plus serially diluted test compouunds and mannosidase enzyme in a total volume of 50 ul, in 96 well plates. Plates were incubated 45 min at 37° C., then the reaction was stopped with 50 μl of 0.5M sodium carbonate. The absorbance of reaction products was read at 405 nm. The lysosomal mannosidase was done in the same procedure but with 40 mM sodium acetate buffer pH 5.0. The numbers in the table are IC50 values in μM for inhibition of mannosidase activity.

MDAY-D2 tumor cells [2] = test: L-PHA toxicity assay (inhibition of oligosaccharide processing in cells); type: cell-based, mouse; conditions: MDAY-D2 mouse lymphoma cells; read-out: IC50 for protection of cells from toxicity of LPHA lectin
Description: MDAY-D2 tumor cells were inoculated into 96 well micro-test plates at 2×10^4 cells/well, and containing serial dilutions of SW or SW analogues in MEM plus 10% FCS. The cells were cultured for 18-20 hr, followed by the addition of L-PHA at 25 μg/ml for an additional 24 hr. Cell proliferation was measured by adding 0.5 μCi/well of ^3 H-thymidine for 3-4 hr, harvesting onto glass fibre disks using a Titertek harvester and the disks were counted in a liquid scintillation counter. The apparent IC50 values for SW and the analogues are the drug concentrations showing 50% protection from L-PHA toxicity; that is 50% ^3 H-thymidine incorporated compared with cells grown in the absence of L-PHA. In experiments using the esterase inhibitor diethyl p-nitrophenyl phosphate, the compound was added to MDAY-D2 cells 4 hr prior to the α-mannosidase inhibitors and was present through-out the experiment.

[3] = Cellular toxicity / cell growth with compound alone (no L-PHA); type: cell-based; conditions: MDAY-D2 mouse lymphoma cells; read-out: Toxicity (cellular toxicity observed with compound alone)
MDAY-D2 tumor cells [4] = conditions: no drug; cited from earlier work

selectivity Mannosidase II versus lysosomal mannosidase [1] | Molecule | IC50 [1] | Ratio [1] | IC50 (lysosomal mannosidase) | IC50 (MDAY-D2 tumor cells [2]) | Concentration at which toxicity was seen with compound alone [3] | D50 for L-PHA toxicity (MDAY-D2 tumor cells [4])
favourable to Mannosidase II | OC[C@@H]1[C@H](O)[C@H](O)CN1Cc1ccccc1 [GD002] | 19 µM | 11.42 | 217 µM |  |  | 
 | CN1C[C@@H](O)[C@@H](O)[C@H]1CO [GD003, N-methyl-DIL] | 26.3 µM | 0.517 | 13.6 µM | 312 µM | > 5000 µM | 
 | CCCCN1C[C@@H](O)[C@@H](O)[C@H]1CO [GD004, N-butyl-DIL] | 50.9 µM | 0.50 | 25.5 µM | 625 µM | > 2500 µM | 
 | CCN1C[C@@H](O)[C@@H](O)[C@H]1CO [GD005, N-ethyl-DIL] | 33.9 µM | 0.42 | 14.3 µM | 312 µM | > 5000 µM | 
 | CCCN1C[C@@H](O)[C@@H](O)[C@H]1CO [GD006, N-propyl-DIL] | 22.1 µM | 0.87 | 19.2 µM | 156 µM | > 2500 µM | 
 | OC[C@@H]1[C@H](O)[C@H](O)CN1CC1CC1 [GD008, N-cyclo-propyl-methyl-DIL] | 8.3 µM | 0.59 | 4.9 µM | 40 µM | > 2500 µM | 
 | CC(O)C1[C@H](O)[C@H](O)CN1CC1CC1 (stereo partly drawn) [GD013] | 114 µM | 1.69 | 193 µM |  |  | 
 | CC(O)C1[C@H](O)[C@H](O)CN1CC1CCCCC1 (stereo partly drawn) [GD014] | 140 µM | 1.12 | 157 µM |  |  | 
 | L-PHA: toxic plant lectin (leukoagglutinin) purchased from Pharmacia |  |  |  |  |  | 5 µg/mL
